Here are results for 19 molecules from ChEMBL document CHEMBL1177684, “Synthesis, molecular modeling, and biological evaluation of cinnamic acid metronidazole ester derivatives as novel anticancer agents” (Bioorg Med Chem, 2010).

For assay [1], the system named is MCF7. Kind of assay: Antiproliferative activity against human MCF7 cells after 48 hrs by MTT assay. To be noted: MCF7, 48 h. On the technique in general: Formazan colour is commonly taken as a measure of viable cells.
In assay [2] the target is Epidermal growth factor receptor (Homo sapiens, UniProt P00533).
Chain of Epidermal growth factor receptor (P00533 whole entry): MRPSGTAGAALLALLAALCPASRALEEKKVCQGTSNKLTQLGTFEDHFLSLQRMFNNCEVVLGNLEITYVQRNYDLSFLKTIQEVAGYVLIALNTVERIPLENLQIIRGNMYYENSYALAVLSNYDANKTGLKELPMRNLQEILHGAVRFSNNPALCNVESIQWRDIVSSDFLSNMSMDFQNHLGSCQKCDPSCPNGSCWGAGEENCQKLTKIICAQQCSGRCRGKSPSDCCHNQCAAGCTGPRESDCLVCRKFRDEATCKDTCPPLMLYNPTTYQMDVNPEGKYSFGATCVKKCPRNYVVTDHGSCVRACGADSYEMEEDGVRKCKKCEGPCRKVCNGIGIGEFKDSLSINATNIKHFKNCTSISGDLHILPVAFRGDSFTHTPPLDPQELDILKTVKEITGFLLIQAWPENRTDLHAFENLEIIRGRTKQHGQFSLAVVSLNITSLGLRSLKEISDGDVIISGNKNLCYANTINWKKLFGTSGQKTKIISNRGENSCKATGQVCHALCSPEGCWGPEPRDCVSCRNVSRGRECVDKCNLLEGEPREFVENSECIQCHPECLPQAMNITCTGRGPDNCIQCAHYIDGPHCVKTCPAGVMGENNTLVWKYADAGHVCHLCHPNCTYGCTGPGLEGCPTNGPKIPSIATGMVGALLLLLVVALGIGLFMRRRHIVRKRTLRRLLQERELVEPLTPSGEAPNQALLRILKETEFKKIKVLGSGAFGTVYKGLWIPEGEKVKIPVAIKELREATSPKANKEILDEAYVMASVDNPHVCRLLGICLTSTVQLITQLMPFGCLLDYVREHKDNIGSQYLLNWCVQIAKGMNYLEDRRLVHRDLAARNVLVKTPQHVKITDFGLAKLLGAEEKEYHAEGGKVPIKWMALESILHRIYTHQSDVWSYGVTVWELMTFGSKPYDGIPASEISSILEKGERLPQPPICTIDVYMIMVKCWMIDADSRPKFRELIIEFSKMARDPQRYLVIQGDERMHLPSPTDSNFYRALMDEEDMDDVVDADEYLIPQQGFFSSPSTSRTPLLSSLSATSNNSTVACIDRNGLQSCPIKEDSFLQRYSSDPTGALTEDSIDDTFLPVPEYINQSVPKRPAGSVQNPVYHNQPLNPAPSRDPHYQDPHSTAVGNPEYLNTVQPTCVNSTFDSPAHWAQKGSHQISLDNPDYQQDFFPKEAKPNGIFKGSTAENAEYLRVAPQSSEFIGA
Description: Inhibition of human recombinant His6x-tagged EGFR autophosphorylation expressed in Sf9 cells after 1 hr by ELISA
Assay [3] concerns the target Receptor tyrosine-protein kinase erbB-2 (Homo sapiens, UniProt P04626).
Description: Inhibition of human recombinant His6x-tagged HER2 autophosphorylation expressed in Sf9 cells after 1 hr by ELISA

Chain of Receptor tyrosine-protein kinase erbB-2 (P04626 whole entry): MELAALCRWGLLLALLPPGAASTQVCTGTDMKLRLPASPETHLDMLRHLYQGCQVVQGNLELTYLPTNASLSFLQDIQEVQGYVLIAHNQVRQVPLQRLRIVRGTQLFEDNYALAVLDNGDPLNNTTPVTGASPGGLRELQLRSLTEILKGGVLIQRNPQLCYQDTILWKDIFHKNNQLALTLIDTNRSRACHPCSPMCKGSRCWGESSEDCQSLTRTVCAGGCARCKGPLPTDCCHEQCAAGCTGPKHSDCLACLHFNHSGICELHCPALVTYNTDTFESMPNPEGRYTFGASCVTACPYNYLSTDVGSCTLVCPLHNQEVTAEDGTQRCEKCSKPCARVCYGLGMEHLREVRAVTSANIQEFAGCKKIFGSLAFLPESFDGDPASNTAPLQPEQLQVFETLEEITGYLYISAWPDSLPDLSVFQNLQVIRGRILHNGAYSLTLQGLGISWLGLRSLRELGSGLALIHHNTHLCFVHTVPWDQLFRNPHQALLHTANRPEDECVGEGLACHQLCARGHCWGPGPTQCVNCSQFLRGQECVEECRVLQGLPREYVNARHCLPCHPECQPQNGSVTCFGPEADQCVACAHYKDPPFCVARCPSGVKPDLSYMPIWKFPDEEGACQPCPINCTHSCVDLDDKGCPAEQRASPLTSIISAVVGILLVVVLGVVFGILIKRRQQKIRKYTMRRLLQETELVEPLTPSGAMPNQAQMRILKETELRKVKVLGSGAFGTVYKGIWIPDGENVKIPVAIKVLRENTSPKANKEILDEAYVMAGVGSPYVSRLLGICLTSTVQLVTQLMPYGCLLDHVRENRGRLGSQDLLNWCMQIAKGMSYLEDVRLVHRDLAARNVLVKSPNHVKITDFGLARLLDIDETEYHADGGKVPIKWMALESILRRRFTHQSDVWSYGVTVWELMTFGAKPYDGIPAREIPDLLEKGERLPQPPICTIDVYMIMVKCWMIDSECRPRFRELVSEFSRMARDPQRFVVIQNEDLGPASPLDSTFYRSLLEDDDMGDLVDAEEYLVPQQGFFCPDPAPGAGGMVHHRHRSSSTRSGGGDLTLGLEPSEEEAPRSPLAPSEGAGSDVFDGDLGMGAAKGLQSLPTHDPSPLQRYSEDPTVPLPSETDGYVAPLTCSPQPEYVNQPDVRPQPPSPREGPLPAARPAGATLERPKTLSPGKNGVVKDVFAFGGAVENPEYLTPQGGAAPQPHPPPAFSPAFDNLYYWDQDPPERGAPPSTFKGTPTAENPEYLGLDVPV

What is called IC50 is the concentration at which inhibition is half-maximal. As to `Cc1ncc([N+](=O)[O-])n1CCOC(=O)/C=C/c1cccc2ccccc12`, the half-inhibitory concentration (IC50) was found to be 3.4 µM in assay [1], 3.88 µM in assay [2] and 5.03 µM in assay [3].
The like results for `Cc1ncc([N+](=O)[O-])n1CCOC(=O)/C=C/c1ccc2ccccc2c1` were, in that order, 4.1 µM, 5.76 µM and 9.24 µM.
For `COc1ccccc1/C=C/C(=O)OCCn1c([N+](=O)[O-])cnc1C`, in that order: 20 µM, 32 µM and more than 50 µM.
As to `Cc1ncc([N+](=O)[O-])n1CCOC(=O)/C=C/c1ccc(F)cc1`, the IC50 was 3.76 µM in assay [1], 4.12 µM in assay [2] and 5.84 µM in assay [3].
For `Cc1ncc([N+](=O)[O-])n1CCOC(=O)/C=C/c1ccc(Cl)cc1`, in that order: 3.05 µM, 3.62 µM and 4.77 µM.
On to `Cc1ncc([N+](=O)[O-])n1CCOC(=O)/C=C/c1ccccc1F`, for which the figures for the IC50 in assay [1], in assay [2] and in assay [3] were 15 µM, 26.7 µM and 41.3 µM, respectively.
For `Cc1ncc([N+](=O)[O-])n1CCOC(=O)/C=C/c1ccccc1Cl`, in that order: 18 µM, 20.8 µM and 36.5 µM.
The like results for `Cc1ncc([N+](=O)[O-])n1CCOC(=O)/C=C/c1ccccc1Br` were, in that order, 16 µM, 24.3 µM and 44.8 µM.
As to `Cc1ncc([N+](=O)[O-])n1CCOC(=O)/C=C/c1cccc([N+](=O)[O-])c1`, the figures for the 50% inhibitory concentration (IC50) in assay [1], in assay [2] and in assay [3] were 5.68 µM, 14.5 µM and 19.3 µM, respectively.
For `Cc1ncc([N+](=O)[O-])n1CCOC(=O)/C=C/c1cccc(F)c1`, in that order: 5.88 µM, 12.4 µM and 16.8 µM.
As for `COc1cccc(/C=C/C(=O)OCCn2c([N+](=O)[O-])cnc2C)c1`, the concentration for half-maximal inhibition (IC50) came to 5.75 µM in assay [1], 13.9 µM in assay [2] and 18.8 µM in assay [3].
As to `Cc1ncc([N+](=O)[O-])n1CCOC(=O)/C=C/c1ccc(Br)cc1`, the IC50 in assay [1] was 2.45 µM; in assay [2], 3.24 µM; in assay [3] it was 4.65 µM.
The like results for `Cc1ncc([N+](=O)[O-])n1CCOC(=O)/C=C/c1ccccc1` were, in that order, 4.41 µM, 7.83 µM and 10.8 µM.
As for `Cc1ccc(/C=C/C(=O)OCCn2c([N+](=O)[O-])cnc2C)cc1`, the IC50 in assay [1] worked out at 4.28 µM; in assay [2] it was 8.11 µM; in assay [3] it was 9.65 µM.
`COc1ccc(/C=C/C(=O)OCCn2c([N+](=O)[O-])cnc2C)cc1`: the IC50 in assay [1] was 5.49 µM; in assay [2], 10.8 µM; in assay [3] it was 14.3 µM.
Regarding `Cc1ncc([N+](=O)[O-])n1CCOC(=O)/C=C/c1ccc(C(C)C)cc1`, the half-inhibitory concentration (IC50) is 4.96 µM in assay [1], 6.82 µM in assay [2] and 9.97 µM in assay [3].
Turning to `Cc1ncc([N+](=O)[O-])n1CCOC(=O)/C=C/c1ccc(-c2ccccc2)cc1`, the figures for the IC50 in assay [1], in assay [2] and in assay [3] were 0.36 µM, 0.62 µM and 2.15 µM, respectively.
In assay [3], `Cc1ncc([N+](=O)[O-])n1CCOC(=O)/C=C/c1ccc(OCc2ccccc2)cc1` yielded a half-inhibitory concentration (IC50) of 3.46 µM.
Consider `Cc1ncc([N+](=O)[O-])n1CCOC(=O)/C=C/c1ccccc1[N+](=O)[O-]`, for which the half-maximal inhibitory concentration (IC50) in assay [1] was found to be 17 µM; in assay [2], 25 µM; in assay [3], 40 µM.
